Series [1] has as its target Acetylcholinesterase (Electrophorus electricus) (UniProt O42275). Description: Inhibition of electric eel AChE at 3.0 uM using acetylthiocholine iodide as substrate measured from 0.5 to 1.5 mins by spectrophotometry-based Ellman's method relative to control. (In general: Ellman's reagent forms a yellow product with free thiols.)
In series [2] the test system is HeLa. Briefly: Cytotoxicity against human HeLa cells assessed as cell mortality at 10 uM after 24 hrs by MTT assay. The series is classed as cell-based. Background: Tetrazolium assays rely on reduction of a dye to a coloured formazan, in cell work by metabolically active cells.
For series [3], the target named is Acetylcholinesterase (Electrophorus electricus, UniProt O42275). Description: Mixed inhibition of electric eel AChE using acetylthiocholine iodide as substrate measured from 0.5 to 1.5 mins by Dixon plot analysis.
Chain of Acetylcholinesterase (Electrophorus electricus, UniProt O42275) (O42275 whole entry): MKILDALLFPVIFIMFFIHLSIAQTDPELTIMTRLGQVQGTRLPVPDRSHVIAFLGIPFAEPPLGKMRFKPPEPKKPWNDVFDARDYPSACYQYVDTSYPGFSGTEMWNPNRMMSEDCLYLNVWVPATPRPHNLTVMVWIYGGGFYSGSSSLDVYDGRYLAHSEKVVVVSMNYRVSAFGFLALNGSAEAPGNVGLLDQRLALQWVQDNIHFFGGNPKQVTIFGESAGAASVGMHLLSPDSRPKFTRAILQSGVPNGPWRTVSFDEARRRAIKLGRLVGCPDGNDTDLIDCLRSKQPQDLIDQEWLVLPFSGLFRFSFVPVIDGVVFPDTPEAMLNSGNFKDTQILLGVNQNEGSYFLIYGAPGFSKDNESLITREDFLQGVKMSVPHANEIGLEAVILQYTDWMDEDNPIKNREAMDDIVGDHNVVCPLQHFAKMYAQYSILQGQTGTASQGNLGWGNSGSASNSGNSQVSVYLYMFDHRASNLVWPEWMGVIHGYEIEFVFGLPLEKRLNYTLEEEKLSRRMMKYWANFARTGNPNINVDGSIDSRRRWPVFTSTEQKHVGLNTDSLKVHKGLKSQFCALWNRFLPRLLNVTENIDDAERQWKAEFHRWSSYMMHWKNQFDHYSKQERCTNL
Series [4] has as its target Acetylcholinesterase (Electrophorus electricus) (UniProt O42275). Briefly: Time-dependent inhibition of electric eel AChE at 300 nM using acetylthiocholine iodide as substrate.
Series [5] deals with Cholinesterase (Equus caballus) (UniProt P81908). Description: Inhibition of equine BChE at 0.3 uM using butyrylthiocholine iodide as substrate measured from 0.5 to 1.5 mins by spectrophotometry based Ellman's method relative to control.
Chain of Cholinesterase (Equus caballus) (P81908 whole entry): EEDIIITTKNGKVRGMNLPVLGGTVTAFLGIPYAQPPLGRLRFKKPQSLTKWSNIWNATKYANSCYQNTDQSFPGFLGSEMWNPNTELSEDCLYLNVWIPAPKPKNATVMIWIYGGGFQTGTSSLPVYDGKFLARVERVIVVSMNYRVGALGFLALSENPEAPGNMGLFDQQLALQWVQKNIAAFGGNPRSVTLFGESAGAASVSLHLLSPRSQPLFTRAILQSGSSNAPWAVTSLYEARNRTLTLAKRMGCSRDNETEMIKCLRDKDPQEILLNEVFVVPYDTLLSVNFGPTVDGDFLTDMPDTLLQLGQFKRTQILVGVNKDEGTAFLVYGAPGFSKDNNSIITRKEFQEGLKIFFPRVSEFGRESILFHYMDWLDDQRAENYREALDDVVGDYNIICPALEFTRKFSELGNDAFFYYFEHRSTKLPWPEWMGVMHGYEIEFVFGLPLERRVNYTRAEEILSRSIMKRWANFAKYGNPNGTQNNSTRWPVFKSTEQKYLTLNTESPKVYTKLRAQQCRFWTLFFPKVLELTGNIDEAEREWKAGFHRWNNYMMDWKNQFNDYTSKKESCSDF
For series [6], the target named is T1, Cholinesterase (Homo sapiens, UniProt P06276). Briefly: Inhibition of human serum BChE using butyrylthiocholine iodide as substrate preincubated for 20 mins followed by substrate addition measured for 3 mins by Ellman's method.
T1 sequence (P06276 whole entry): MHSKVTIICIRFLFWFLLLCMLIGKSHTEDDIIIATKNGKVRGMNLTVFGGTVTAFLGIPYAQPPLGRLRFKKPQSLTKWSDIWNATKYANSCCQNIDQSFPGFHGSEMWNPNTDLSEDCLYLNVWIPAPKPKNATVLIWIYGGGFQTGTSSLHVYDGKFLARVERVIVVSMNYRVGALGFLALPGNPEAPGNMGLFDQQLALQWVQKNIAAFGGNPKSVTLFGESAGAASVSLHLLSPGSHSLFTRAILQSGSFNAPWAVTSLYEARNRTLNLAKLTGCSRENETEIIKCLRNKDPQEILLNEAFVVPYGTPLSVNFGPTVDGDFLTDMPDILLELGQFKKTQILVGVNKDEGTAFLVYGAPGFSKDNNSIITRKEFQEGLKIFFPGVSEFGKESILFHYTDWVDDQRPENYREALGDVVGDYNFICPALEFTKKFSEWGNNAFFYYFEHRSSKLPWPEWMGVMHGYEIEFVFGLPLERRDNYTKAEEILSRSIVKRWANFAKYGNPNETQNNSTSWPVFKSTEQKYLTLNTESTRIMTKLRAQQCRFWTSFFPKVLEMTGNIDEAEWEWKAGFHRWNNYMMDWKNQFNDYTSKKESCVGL
Series [7] concerns the target T2, Acetylcholinesterase (Homo sapiens, UniProt P22303). Description: Inhibition of human serum AChE using acetylthiocholine iodide as substrate preincubated for 20 mins followed by substrate addition measured for 3 mins by Ellman's method.
A short description of series [8]: Cytotoxicity against human T67 cells after 24 hrs by MTT assay. The series is classed as cell-based. The conditions noted are these: T67, 24 h.
Series [9] is described as follows: Cytotoxicity against human T67 cells assessed as cell mortality at 10 uM after 24 hrs by MTT assay. In kind it is cell-based.
The target in series [10] is Cholinesterase (Equus caballus) (UniProt P81908). Description: Inhibition of equine BChE at 3.0 uM using butyrylthiocholine iodide as substrate measured from 0.5 to 1.5 mins by spectrophotometry based Ellman's method relative to control.
Series [11] has as its target Acetylcholinesterase (Electrophorus electricus) (UniProt O42275). Briefly: Inhibition of electric eel AChE at 0.03 uM using acetylthiocholine iodide as substrate measured from 0.5 to 1.5 mins by spectrophotometry-based Ellman's method relative to control.
Series [12] has the same target. Briefly: Inhibition of electric eel AChE at 0.3 uM using acetylthiocholine iodide as substrate measured from 0.5 to 1.5 mins by spectrophotometry-based Ellman's method relative to control.
For series [13], the system named is HeLa. Description: Cytotoxicity against human HeLa cells after 24 hrs by MTT assay. The series is classed as cell-based.
In series [14] the target is T2, Acetylcholinesterase. Briefly: Inhibition of human serum AChE at 25 uM using acetylthiocholine iodide as substrate preincubated for 20 mins followed by substrate addition measured for 3 mins by Ellman's method.
Series [15] addresses T1, Cholinesterase. Description: Inhibition of human serum BChE at 25 uM using butyrylthiocholine iodide as substrate preincubated for 20 mins followed by substrate addition measured for 3 mins by Ellman's method.
Series [16] concerns the target Cholinesterase (Equus caballus) (UniProt P81908). Description: Inhibition of equine BChE at 30 uM using butyrylthiocholine iodide as substrate measured from 0.5 to 1.5 mins by spectrophotometry based Ellman's method relative to control.
The nature of series [17]: Cytotoxicity against human T67 cells assessed as effect on cell viability up to 10 uM after 24 hrs by MTT assay. In kind it is cell-based.
In series [18] the test system is HeLa. Briefly: Cytotoxicity against human HeLa cells assessed as effect on cell viability up to 10 uM after 24 hrs by MTT assay. In kind it is cell-based.

Calls of active or inactive are those of the source. The calls are words filed in the database; no cut-off is given here.

T2 sequence (P22303 whole entry): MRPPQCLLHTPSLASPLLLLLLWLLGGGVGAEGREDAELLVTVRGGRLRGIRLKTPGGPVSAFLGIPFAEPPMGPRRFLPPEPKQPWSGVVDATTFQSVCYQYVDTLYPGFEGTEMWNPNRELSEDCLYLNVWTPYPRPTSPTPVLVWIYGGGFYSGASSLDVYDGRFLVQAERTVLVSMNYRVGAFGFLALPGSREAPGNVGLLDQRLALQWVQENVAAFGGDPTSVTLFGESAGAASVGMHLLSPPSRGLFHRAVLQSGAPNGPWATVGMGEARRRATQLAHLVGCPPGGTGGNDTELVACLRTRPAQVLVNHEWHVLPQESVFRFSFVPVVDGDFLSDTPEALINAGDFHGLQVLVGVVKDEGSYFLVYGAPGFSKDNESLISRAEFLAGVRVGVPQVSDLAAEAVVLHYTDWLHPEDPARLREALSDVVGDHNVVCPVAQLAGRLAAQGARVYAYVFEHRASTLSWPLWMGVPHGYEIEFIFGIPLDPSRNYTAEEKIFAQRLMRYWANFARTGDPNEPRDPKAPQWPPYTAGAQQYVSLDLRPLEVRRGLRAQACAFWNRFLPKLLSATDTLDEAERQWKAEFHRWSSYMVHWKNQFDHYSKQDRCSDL
Chain of Acetylcholinesterase (Electrophorus electricus) (O42275 24-633 limits assumed): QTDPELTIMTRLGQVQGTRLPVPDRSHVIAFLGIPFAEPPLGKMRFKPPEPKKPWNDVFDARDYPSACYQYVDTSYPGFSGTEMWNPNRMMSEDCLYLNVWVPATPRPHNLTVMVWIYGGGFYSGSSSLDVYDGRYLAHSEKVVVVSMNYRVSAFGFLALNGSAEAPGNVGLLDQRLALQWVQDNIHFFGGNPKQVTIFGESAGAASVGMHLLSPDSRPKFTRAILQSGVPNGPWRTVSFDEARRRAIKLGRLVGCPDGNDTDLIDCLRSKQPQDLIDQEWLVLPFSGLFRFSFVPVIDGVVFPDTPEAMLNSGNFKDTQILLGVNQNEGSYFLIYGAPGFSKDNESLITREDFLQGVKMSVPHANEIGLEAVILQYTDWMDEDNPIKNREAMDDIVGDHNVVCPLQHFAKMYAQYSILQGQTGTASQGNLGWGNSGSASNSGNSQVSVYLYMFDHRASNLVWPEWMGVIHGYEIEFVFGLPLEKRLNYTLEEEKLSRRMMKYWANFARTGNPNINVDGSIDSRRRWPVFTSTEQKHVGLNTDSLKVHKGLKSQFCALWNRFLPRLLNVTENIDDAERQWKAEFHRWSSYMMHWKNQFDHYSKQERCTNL

For the molecule `O=C(Nc1cc(Cl)nc(Cl)c1)OCCCCCNCc1c[nH]c2ccccc12`, the inhibition was found to be 97% in [1]; 8% in [5]; 57% in [10]; 24% in series [11]; 76% in [12]. Moreover, the Activity (in the series with HeLa [2]; in series [9]) was 50% in each case. The affinity at Acetylcholinesterase [3], expressed as Ki, was 0.157 µM. Also, the TDI result in series [4] is “inactive”. Further, the IC50 against Cholinesterase [6] was 0.828 µM; on Acetylcholinesterase [7], 0.648 µM; in series [8], 5.8 µM; in the series on HeLa [13] it was 6.7 µM.

As to `O=C(NCCCCCCNCc1ccc(Oc2ccccc2)cc1)c1cc(Cl)nc(Cl)c1`, the inhibition was 16% in series [1], less than 20% on Acetylcholinesterase [14], 18% in [10] and less than 20% against Cholinesterase [15]. In series [12], the inhibition result was “inactive”.

For `O=C(NCCCCCCNCc1ccccc1)c1cc(Cl)nc(Cl)c1`, the inhibition in [1] worked out at 95%; in [5] it was 17%; in [10], 73%; in [11] it was 18%; in series [12], 71%. The molecule also displayed a Ki on Acetylcholinesterase [3] of 0.0528 µM. The IC50 on Cholinesterase [6] is 25.8 µM; at Acetylcholinesterase [7], 3.17 µM.

For `O=C(Nc1cc(Cl)nc(Cl)c1)OCCCCCNCc1ccc(Oc2ccccc2)cc1`, the inhibition is 24% in series [1], less than 20% at Acetylcholinesterase [14], 60% in series [10] and less than 5% in [12]. For the same molecule, the TDI entry in series [4] is “inactive”. For the same molecule, the IC50 on Cholinesterase [6] was found to be 8.41 µM.

With `O=C(Nc1ccncc1Br)OCCCCCNCc1ccccc1`, the inhibition in series [1] is 90%; in series [5] it was less than 5%; in series [10], 57%; in series [11] it was 20%; in series [12] it was 55%. Besides, at Acetylcholinesterase [3], the inhibitory constant (Ki) was 0.404 µM. Moreover, the TDI result in series [4] was “inactive”. The IC50 at Cholinesterase [6] is 5.27 µM; on Acetylcholinesterase [7] it was 4.04 µM.

As for `O=C(NCCCCCCNCc1ccc2ccccc2c1)c1cc(Cl)nc(Cl)c1`, the values for the inhibition in [1] and in [10] were 15% and 46%, respectively. The values for the IC50 on Cholinesterase [6] and against Acetylcholinesterase [7] were 9.96 µM and 99.7 µM, respectively. In addition, in [12], the inhibition result is “inactive”.

For `O=C(NCCCCCCNCc1c[nH]c2ccccc12)c1cc(Cl)nc(Cl)c1`, the inhibition was determined as 92% in series [1]; 13% in series [5]; 64% in series [10]; 15% in series [11]; 55% in series [12]. Besides, the inhibitory constant (Ki) on Acetylcholinesterase [3] stood at 0.205 µM. In addition, the IC50 amounted to 4.7 µM at Cholinesterase [6] and 8.85 µM against Acetylcholinesterase [7].

Turning to `O=C(Nc1cc(Cl)nc(Cl)c1)OCCCCCNCc1ccccc1`, the inhibition in [1] came to 99%; in series [16] it was 95%; in series [5], 17%; in series [11], 65%; in series [12], 91%. The molecule also yielded a Ki on Acetylcholinesterase [3] of 0.0386 µM. The TDI entry in series [4] is “inactive”. For the same molecule, the half-inhibitory concentration (IC50) was determined as 4.59 µM against Cholinesterase [6], 0.153 µM at Acetylcholinesterase [7], 24.1 µM in [8] and 20.8 µM with HeLa [13]. The Activity result (in series [17]; in the series on HeLa [18]) was “Non-Toxic” in each case.

As to `COc1ccccc1CNCCCCCOC(=O)Nc1cc(Cl)nc(Cl)c1`, the inhibition in series [1] is 89%; in series [5], less than 5%; in series [10] it was 49%; in series [11], 10%; in series [12], 50%. For the same molecule, the inhibition constant Ki at Acetylcholinesterase [3] is 0.288 µM. Also, the TDI entry in series [4] was “inactive”. The IC50 on Cholinesterase [6] turned out to be 4.02 µM; against Acetylcholinesterase [7], 6.16 µM.

As for `O=C(Nc1cc(Cl)nc(Cl)c1)OCCCCCCNCc1ccccc1`, the inhibition is 91% in [1]; 89% in series [16]; 12% in [5]; 33% in series [11]; 72% in series [12]. Also, the Activity (in the series on HeLa [2]; in series [9]) was 25% in each case. In addition, the inhibitory constant (Ki) at Acetylcholinesterase [3] turned out to be 0.259 µM. Besides, in series [4], the TDI result was “inactive”. The concentration for half-maximal inhibition (IC50) turned out to be 4.01 µM against Cholinesterase [6], 0.759 µM at Acetylcholinesterase [7], 13.2 µM in [8] and 12.5 µM in the series with HeLa [13].

For the molecule `COc1ccccc1CNCCCCCCNC(=O)c1cc(Cl)nc(Cl)c1`, the inhibition in series [1] came to 90%; in series [5] it was 6%; in series [10] it was 54%; in series [11] it was 14%; in series [12], 49%. Moreover, the Ki on Acetylcholinesterase [3] was determined as 0.355 µM. Moreover, the IC50 came to 45.5 µM at Cholinesterase [6] and 8.3 µM against Acetylcholinesterase [7].

As usually defined, the inhibition is the change of the read-out against control, counted positive when it falls. By Ki is commonly meant the dissociation constant of the complex between target and ligand, obtained from inhibition or displacement. Low values mean tighter binding, high ones weaker binding. What is called IC50 is the point on the concentration scale where inhibition reaches its midpoint. Lower therefore signals inhibition by little substance.

(Values after ChEMBL document CHEMBL4130500, “New pyridine derivatives as inhibitors of acetylcholinesterase and amyloid aggregation” (Eur J Med Chem, 2017).)
